According to PubChem BioAssay (NCI):
Values joined by “and” are separate entries in the source; they are usually repeats but may differ in a detail not shown here. Equal values may be shown once.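 Exposure lasted 48 hours, with cells grown in 96-well plates and compounds tested at five concentrations. Abbreviation: GI50, concentration required for 50% inhibition of growth. TGI denotes the concentration required for complete inhibition of growth.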

Assays:
Assay in all cases: NCI tumour cell line growth inhibition, 48 h
ACHN renal = test system: ACHN renal
HCC-2998 colon = test system: HCC-2998 colon
HL-60(TB) leukemia = test system: HL-60(TB) leukemia
KM12 colon = test system: KM12 colon
SK-MEL-2 melanoma = test system: SK-MEL-2 melanoma
SK-OV-3 ovarian = test system: SK-OV-3 ovarian
SN12C renal = test system: SN12C renal
SNB-19 CNS = test system: SNB-19 CNS

## CN=c1ccc2nc3ccc(N)cc3sc-2c1
ACHN renal
  GI50: 2.25 µM
  TGI: 17.4 µM
HCC-2998 colon
  GI50: 4.32 µM
  TGI: 38.6 µM
HL-60(TB) leukemia
  GI50: 0.354 µM
  TGI: 1.67 µM
KM12 colon
  GI50: 2.07 µM
  TGI: 20.1 µM
SK-MEL-2 melanoma
  GI50: 11 µM
  TGI: 30.9 µM
SK-OV-3 ovarian
  GI50: 5.03 µM
  TGI: 24.7 µM
SN12C renal
  GI50: 2.47 µM
  TGI: 12.5 µM
SNB-19 CNS
  GI50: 3.25 µM
  TGI: > 100 µM

## C=CC(=O)Nc1cccc(Oc2nc(Nc3ccc(N4CCN(C)CC4)cc3)nc3ccsc23)c1
ACHN renal
  GI50: 1.07 µM
  TGI: 2.51 µM
HCC-2998 colon
  GI50: 14.8 µM
  TGI: > 10 µM and 32.3 µM
HL-60(TB) leukemia
  GI50: 1.43 µM
  TGI: 4.09 µM
KM12 colon
  GI50: 3.36 µM and 2.49 µM
  TGI: > 10 µM and 6.77 µM
SK-MEL-2 melanoma
  GI50: 2.85 µM and 2.49 µM
  TGI: 8.48 µM and 5 µM
SK-OV-3 ovarian
  GI50: 0.307 µM and 0.508 µM
  TGI: > 10 µM and 14 µM
SN12C renal
  GI50: 1.58 µM and 1.61 µM
  TGI: 4.35 µM and 4.61 µM
SNB-19 CNS
  GI50: 3.51 µM and 3.35 µM
  TGI: > 10 µM and 14.1 µM

## O=C1/C(=C/c2ccccc2[N+](=O)[O-])Cc2ccccc21
ACHN renal
  GI50: 1.87 µM
  TGI: 4.87 µM
HCC-2998 colon
  GI50: 1.64 µM
  TGI: 3.14 µM
HL-60(TB) leukemia
  GI50: 2.85 µM
  TGI: 7.12 µM
KM12 colon
  GI50: 3.97 µM
  TGI: 15.7 µM
SK-MEL-2 melanoma
  GI50: 5.39 µM
  TGI: 19.7 µM
SK-OV-3 ovarian
  GI50: 6.86 µM
  TGI: 38.4 µM
SN12C renal
  GI50: 2.54 µM
  TGI: 9.17 µM
SNB-19 CNS
  GI50: 10.6 µM
  TGI: 41.2 µM

## O=S(=O)(c1ccc(Cl)cc1)C(Cl)(Cl)Cl
ACHN renal
  GI50: 1.43 µM
  TGI: > 100 µM
HCC-2998 colon
  GI50: 1.42 µM
  TGI: 5.87 µM
HL-60(TB) leukemia
  GI50: 1.8 µM
  TGI: 7.7 µM
KM12 colon
  GI50: 3.27 µM
  TGI: 13.9 µM
SK-MEL-2 melanoma
  GI50: 3.05 µM
  TGI: 19.9 µM
SK-OV-3 ovarian
  GI50: 14 µM
  TGI: 67 µM
SN12C renal
  GI50: 3.54 µM
  TGI: 30.3 µM
SNB-19 CNS
  GI50: 15.2 µM
  TGI: > 78.1 µM

## COc1cc(N2C(=O)[C@H](O)C2c2ccc(SC)cc2)cc(OC)c1OC (stereo not given in full)
ACHN renal
  GI50: < 0.01 µM
  TGI: 60.5 µM
HCC-2998 colon
  GI50: 0.0238 µM
  TGI: 65.3 µM
HL-60(TB) leukemia
  GI50: 0.0106 µM
  TGI: 0.0448 µM
KM12 colon
  GI50: < 0.01 µM
  TGI: > 100 µM
SK-MEL-2 melanoma
  GI50: < 0.01 µM
  TGI: > 100 µM
SK-OV-3 ovarian
  GI50: 0.0142 µM
  TGI: > 100 µM
SN12C renal
  GI50: 0.0482 µM
  TGI: > 100 µM
SNB-19 CNS
  GI50: < 0.01 µM
  TGI: > 100 µM

## C[C@@H]1CN(Cc2ccc(F)cc2)[C@@H](C)CN1C(=O)c1cc2c(C(=O)C(=O)N(C)C)cn(C)c2cc1Cl
ACHN renal
  GI50: 16.6 µM
  TGI: > 54.6 µM
HCC-2998 colon
  GI50: 17.3 µM
  TGI: 34.4 µM
HL-60(TB) leukemia
  GI50: 23.5 µM
  TGI: 63.2 µM
KM12 colon
  GI50: 17.3 µM
  TGI: 37.4 µM
SK-MEL-2 melanoma
  GI50: 17 µM
  TGI: 36.3 µM
SK-OV-3 ovarian
  GI50: 22.7 µM
  TGI: > 79.6 µM
SN12C renal
  GI50: 15.7 µM
  TGI: 43.5 µM
SNB-19 CNS
  GI50: 17.4 µM
  TGI: 64.1 µM

## N#Cc1c(N2CCOCC2)nc(=S)[nH]c1-c1ccco1
ACHN renal
  GI50: 5.75 µM
  TGI: > 100 µM
HCC-2998 colon
  GI50: 25.5 µM
  TGI: > 100 µM
HL-60(TB) leukemia
  GI50: 4.26 µM
  TGI: > 100 µM
KM12 colon
  GI50: 10.4 µM
  TGI: > 100 µM
SK-MEL-2 melanoma
  GI50: 2.38 µM
  TGI: 33.6 µM
SK-OV-3 ovarian
  GI50: 2.72 µM
  TGI: 14.7 µM
SN12C renal
  GI50: 4.46 µM
  TGI: > 100 µM
SNB-19 CNS
  GI50: 26 µM
  TGI: > 100 µM

## CC1=C2[C@@H](CC1)[C@]1(C)O[C@@](c3ccccc3)(C[C@H]1OC(=O)CO)[C@H]2OC(=O)/C=C/c1ccccc1
ACHN renal
  GI50: 0.0446 µM
  TGI: 5.61 µM
HCC-2998 colon
  GI50: 15.2 µM
  TGI: 31.6 µM
HL-60(TB) leukemia
  GI50: 7.43 µM
  TGI: 27.4 µM
KM12 colon
  GI50: 14.8 µM
  TGI: 34.7 µM
SK-MEL-2 melanoma
  GI50: 16.8 µM
  TGI: 38.4 µM
SK-OV-3 ovarian
  GI50: 19 µM
  TGI: 44.8 µM
SN12C renal
  GI50: 1.14 µM
  TGI: 30.2 µM
SNB-19 CNS
  GI50: 22.1 µM
  TGI: 59.8 µM

## COc1ccccc1-c1cc(=O)c2cc(C)cnc2[nH]1
ACHN renal
  TGI: > 100 µM
HCC-2998 colon
  TGI: > 100 µM
HL-60(TB) leukemia
  GI50: 9.53 µM
  TGI: 76.2 µM
KM12 colon
  TGI: > 100 µM
SK-MEL-2 melanoma
  TGI: > 100 µM
SK-OV-3 ovarian
  TGI: > 100 µM
SN12C renal
  TGI: > 100 µM
SNB-19 CNS
  TGI: > 100 µM

## c1cnn2ncc(-c3ccnc(NCCCN4CCOCC4)n3)c2c1
ACHN renal
  GI50: 6.08 µM
  TGI: > 25 µM
HCC-2998 colon
  GI50: 9.29 µM
  TGI: > 25 µM
HL-60(TB) leukemia
  GI50: 6.08 µM
  TGI: 17.7 µM
KM12 colon
  GI50: 6.85 µM
  TGI: > 21.4 µM
SK-MEL-2 melanoma
  GI50: 5.12 µM
  TGI: 13.9 µM
SK-OV-3 ovarian
  GI50: 8.34 µM
  TGI: > 25 µM
SN12C renal
  GI50: 8.2 µM
  TGI: > 25 µM
SNB-19 CNS
  GI50: 8.35 µM
  TGI: > 25 µM

## Cc1ccc(/C=N\NC(=O)c2[nH]c3ccc(F)cc3c2-c2ccccc2)cc1
ACHN renal
  GI50: 0.0538 µM
  TGI: > 100 µM
HCC-2998 colon
  GI50: 0.0321 µM
  TGI: 16.5 µM
HL-60(TB) leukemia
  GI50: 0.0291 µM
  TGI: 0.121 µM
KM12 colon
  GI50: 0.0282 µM
  TGI: 0.898 µM
SK-MEL-2 melanoma
  GI50: 0.0488 µM
  TGI: 24.5 µM
SK-OV-3 ovarian
  GI50: 0.0307 µM
  TGI: 2.19 µM
SN12C renal
  GI50: 0.0436 µM
  TGI: > 100 µM
SNB-19 CNS
  GI50: 0.0493 µM
  TGI: > 100 µM

## O=C(Nc1ccc(OCc2nnc(-c3ccc(Cl)cc3)o2)c(F)c1)Nc1ccc(Cl)c(C(F)(F)F)c1
ACHN renal
  GI50: 2.11 µM
  TGI: 8.52 µM
HCC-2998 colon
  GI50: 3.01 µM
  TGI: 7.98 µM
HL-60(TB) leukemia
  GI50: 2.83 µM
  TGI: 6.78 µM
KM12 colon
  GI50: 1.71 µM
  TGI: 4.96 µM
SK-MEL-2 melanoma
  GI50: 3.17 µM
  TGI: 9.48 µM
SK-OV-3 ovarian
  GI50: 3.3 µM
  TGI: 12.5 µM
SN12C renal
  GI50: 2.02 µM
  TGI: 7.91 µM
SNB-19 CNS
  GI50: 2.92 µM
  TGI: 18.3 µM
